Patent US5840336A, “Two-phase matrix for sustained release drug delivery device” (Cygnus, Inc., priority 1995, dated 1998)

Key:
[1] = Solubility of the drug in pH 5.0 phosphate buffer receiver fluid; format: physicochemical
[2] = pH 6
[3] = format: in vivo
Procedure: The effective dose for treating Parkinson's disease is estimated to be in the range of about 1 to 3 μg/kg/hr. Accordingly, for transdermal administration, the target flux of this drug (based on a 20 cm^2 delivery area) is estimated to be in the range of approximately 3-10 μg/cm^2 /hr.

D2 = details: cited from earlier work

Compound	solubility for the drug [1]	skin flux from liquid formulations [2]	target flux [3]	effective dose for treating Parkinson's disease ([3]; estimated) [µg/kg/h]	selective D2 agonist (D2)
Cc1cccc(CN2CCN(C)C[C@@H](NC(=O)c3n[nH]c4ccccc34)C2)c1.Cl.Cl [(R)-(-)-N-(1-Methyl-4-(3-methylbenzyl)hexahydro-1H-1,4-diazepin-6-yl)-1H-indazole-3-carboxamide dihydrochloride]	reasonable solubility	–	–	–	–
CCCN(CCc1cccs1)[C@H]1CCc2c(O)cccc2C1 [S(-)-2-(N-propyl-N-2-thienylethylamine)-5-hydroxytetralin]	–	at or above the effective range	3-10 μg/cm^2 /hr	1 to 3	selective D2 agonist
